Data taken from publication PMC10458893, “Design of Protegrin-1 Analogs with Improved Antibacterial Selectivity” (Pharmaceutics, 2023).
Values after ≈ are worked out from the molar mass of the structure shown. Where two headings read alike, the source gives them in different places. Positions of bridges follow the written chain, without caps; N, C: chain ends. Residues, ends and D or L forms follow the SMILES beside them.

Legend:
[1] = tested on: human keratinocyte cell line (HaCaT); assay: Cytotoxicity MTT assay; format: cell-based; conditions: 18 h, 128
Procedure: In order to evaluate the cytotoxicity of the peptides against a human keratinocyte cell line (HaCaT, Cat. No. 300493) (Cell Lines Service, Köln, Germany), the colorimetric 3-(4,5-dimethylthiazol-2-yl)-2,5-diphenyltetrazolium bromide (MTT) dye reduction assay was performed, as described in a previous publication. Wells containing no peptide were used as a 100% survival control. Each peptide was tested in two separate experiments to ensure the reliability of the results.

[2] = tested on: P. aeruginosa PAO1; format: cell-based, Pseudomonas aeruginosa; conditions: PAO1, 24 h
Procedure: (§1) The antimicrobial activity of the peptides was determined using two-fold serial dilutions in sterile 96-well flat-bottom polystyrene microplates (Eppendorf, Hamburg, Germany) (Cat. No. 0030730011), as previously described. The following strains of bacteria were used: E. coli ATCC 25922, E. coli ML35p (ATCC collection), E. coli BW 25113 (Keio collection), Pseudomonas aeruginosa PAO1 (ATCC collection), P. aeruginosa ATCC 27853, Klebsiella pneumoniae ATCC 700603, Staphylococcus aureus 209P (ATCC collection), S. aureus ATCC 29213, and Micrococcus luteus B-1314 (VKM collection). Acinetobacter baumannii (strain XDR CI 2675) was provided by the I.M. Sechenov First Moscow State Medical University hospital. After a 24 h incubation period, the metabolic activity of the bacteria was assessed by adding 20 µL of a redox indicator, resazurin (Sigma-Aldrich, St. Louis, MO, USA), at a concentration of 0.1 mg/mL, to the wells. The plate was then incubated for a further two hours. The minimum inhibitory concentration (MIC) was determined as the lowest concentration of the peptide at which no color change in the resazurin indicator was observed. The results were presented as median values, which were determined based on at least three independent experiments carried out in triplicate.

[3] = tested on: P. aeruginosa ATCC 27853; format: cell-based, Pseudomonas aeruginosa; conditions: ATCC 27853, 24 h
Procedure: as §1

[4] = tested on: K. pneumoniae ATCC 700603; format: cell-based, Klebsiella pneumoniae; conditions: ATCC 700603, 24 h
Procedure: as §1

[5] = tested on: E. coli BW 25113; format: cell-based; conditions: two-fold serial dilutions, 24 h incubation, resazurin read-out; median of at least three independent experiments in triplicate
Procedure: as §1

[6] = tested on: Acinetobacter baumannii (strain XDR CI 2675); format: cell-based
Procedure: as §1

[7] = tested on: E. coli ML35p; format: cell-based
Procedure: as §1

[8] = tested on: E. coli ATCC 25922; format: cell-based; conditions: ATCC 25922, 24 h
Procedure: as §1

[9] = tested on: freshly isolated human erythrocytes (hRBCs); assay: Hemolysis assay (hemoglobin release); format: cell-based; conditions: red cells of human, 64
From the text: To assess the hemolytic activity of the compounds, freshly isolated human erythrocytes (hRBCs) were used according to the methodology described in a previous study. Melittin was used as a positive peptide control that induces significant hemolysis. Isotonic phosphate buffer (PBS) served as a negative control, while 0.1% Triton X-100 solution was used as a control for complete hemolysis.

[10] = tested on: S. aureus ATCC 29213; format: cell-based, Staphylococcus aureus; conditions: ATCC 29213, 24 h
Procedure: as §1

[11] = tested on: S. aureus 209P; format: cell-based, Staphylococcus aureus; conditions: 24 h
Procedure: as §1

[12] = tested on: M. luteus B-1314; format: cell-based, Micrococcus luteus; conditions: B-1314, 24 h
Procedure: as §1

Row | Compound | Cell Viability, % (128 μM) [1] | MIC, P. aeruginosa PAO1 [2] [µM] | MIC, P. aeruginosa ATCC 27853 [3] [µM] | MIC, K. pneumoniae ATCC 700603 [4] [µM] | MIC, E. coli BW 25113 [5] [µM] | MIC, A. baumannii ([6]; strain XDR CI 2675, 24 h) [µM] | MIC, E. coli ML35p ([7]; ML35p, 24 h) [µM] | MIC, E. coli ATCC 25922 [8] [µM] | Hemolytic activity, % (64 μM) [9] | MIC, S. aureus ATCC 29213 [10] [µM] | MIC, S. aureus 209P [11] [µM] | MIC, M. luteus B-1314 [12] [µM] | MIC, A. baumannii ([6]; strain XDR CI 2675, two-fold serial dilutions, 24 h incubation, resazurin read-out, median of at least three independent experiments in triplicate) [µM] | MIC, E. coli ML35p ([7]; two-fold serial dilutions, 24 h incubation, resazurin read-out, median of at least three independent experiments in triplicate) [µM]
1 | CC(C)[C@H](NC(=O)[C@@H]1CSSC[C@H](NC(=O)[C@H](C)NC(=O)[C@H](CCCNC(=N)N)NC(=O)CNC(=O)CNC(=O)[C@@H](N)CCCNC(=N)N)C(=O)N[C@@H](Cc2ccc(O)cc2)C(=O)N[C@H]2CSSC[C@H](NC(=O)[C@H](Cc3ccccc3)NC(=O)[C@H](CCCNC(=N)N)NC(=O)[C@H](CCCNC(=N)N)NC(=O)[C@H](CCCNC(=N)N)NC2=O)C(=O)N[C@@H](C)C(=O)N1)C(=O)NCC(=O)N[C@@H](CCCNC(=N)N)C(=O)O [[L5A,V14A]] (H-RGGRACYCRRRFCACVGR-OH; disulfide 6-15, 8-13; N-terminus and C-terminus assumed) | 38.3 (± 7.19) % | 1 (≈ 2.09 µg/mL) | 1 (≈ 2.09 µg/mL) | 8 (≈ 16.7 µg/mL) | 0.5 (≈ 1.04 µg/mL) | 0.25 (≈ 0.522 µg/mL) | 0.5 (≈ 1.04 µg/mL) | 0.5 (≈ 1.04 µg/mL) | 4.2 (±1.08) % | >32 | 4 (≈ 8.35 µg/mL) | 4 (≈ 8.35 µg/mL) | – | –
2 | CC(C)[C@@H]1NC(=O)[C@@H]2CSSC[C@H](NC(=O)[C@H](Cc3ccc(O)cc3)NC(=O)[C@@H](NC(=O)[C@H](C)NC(=O)[C@H](CCCNC(=N)N)NC(=O)CNC(=O)CNC(=O)[C@@H](N)CCCNC(=N)N)CSSC[C@@H](C(=O)N[C@@H](C)C(=O)NCC(=O)N[C@@H](CCCNC(=N)N)C(=O)O)NC1=O)C(=O)N[C@@H](CCCNC(=N)N)C(=O)N[C@@H](CCCNC(=N)N)C(=O)N[C@@H](CCCNC(=N)N)C(=O)N[C@@H](Cc1ccccc1)C(=O)N2 [[L5A,V16A]] (H-RGGRACYCRRRFCVCAGR-OH; disulfide 6-15, 8-13; N-terminus and C-terminus assumed) | 17.0 (± 2.18) % | 1 (≈ 2.09 µg/mL) | 1 (≈ 2.09 µg/mL) | 8 (≈ 16.7 µg/mL) | 0.5 (≈ 1.04 µg/mL) | 0.25 (≈ 0.522 µg/mL) | 0.5 (≈ 1.04 µg/mL) | 0.5 (≈ 1.04 µg/mL) | 3.6 (±1.72) % | >32 | 4 (≈ 8.35 µg/mL) | 4 (≈ 8.35 µg/mL) | – | –
3 | CC(C)C[C@H](NC(=O)[C@H](CCCNC(=N)N)NC(=O)CNC(=O)CNC(=O)[C@@H](N)CCCNC(=N)N)C(=O)N[C@H]1CSSC[C@@H](C(=O)N[C@@H](CCCNC(=N)N)C(=O)NCC(=O)N[C@@H](CCCNC(=N)N)C(=O)O)NC(=O)[C@H](C(C)C)NC(=O)[C@@H]2CSSC[C@H](NC(=O)[C@H]([C@@H](C)O)NC1=O)C(=O)N[C@@H](CCCNC(=N)N)C(=O)N[C@@H](CCCNC(=N)N)C(=O)N[C@@H](CCCNC(=N)N)C(=O)N[C@@H](Cc1ccccc1)C(=O)N2 [[Y7T,V16R]] (H-RGGRLCTCRRRFCVCRGR-OH; disulfide 6-15, 8-13; N-terminus and C-terminus assumed) | 72.8 (± 5.46) % | >32 | >32 | >32 | 8 (≈ 17.2 µg/mL) | 4 (≈ 8.61 µg/mL) | 4 (≈ 8.61 µg/mL) | 8 (≈ 17.2 µg/mL) | 1.4 (±0.66) % | >32 | >32 | 4 (≈ 8.61 µg/mL) | – | –
4 | CC(C)C[C@H](NC(=O)[C@H](CCCNC(=N)N)NC(=O)CNC(=O)CNC(=O)[C@@H](N)CCCNC(=N)N)C(=O)N[C@H]1CSSC[C@@H](C(=O)N[C@H](C(=O)NCC(=O)N[C@@H](CCCNC(=N)N)C(=O)O)C(C)C)NC(=O)[C@H](C(C)C)NC(=O)[C@@H]2CSSC[C@H](NC(=O)[C@H]([C@@H](C)O)NC1=O)C(=O)N[C@@H](CCCNC(=N)N)C(=O)N[C@@H](CCCNC(=N)N)C(=O)N[C@@H](CCCNC(=N)N)C(=O)N[C@@H](Cc1ccccc1)C(=O)N2 [[Y7T]] (H-RGGRLCTCRRRFCVCVGR-OH; disulfide 6-15, 8-13; N-terminus and C-terminus assumed) | 15.0 (± 1.62) % | 2 (≈ 4.19 µg/mL) | 2 (≈ 4.19 µg/mL) | 8 (≈ 16.8 µg/mL) | 0.5 (≈ 1.05 µg/mL) | – | – | 1 (≈ 2.09 µg/mL) | 4.0 (±2.54) % | 16 (≈ 33.5 µg/mL) | 16 (≈ 33.5 µg/mL) | 4 (≈ 8.38 µg/mL) | 0.5 (≈ 1.05 µg/mL) | 0.5 (≈ 1.05 µg/mL)
